Source: patent publication US20170239212A1, “[…] AND USE THEREOF AS ANTIVIRAL AGENTS” (priority 2014, published 2017)

What was measured:
[1] = target: mouse recombinant isozyme PKCα (Mus musculus, UniProt P20444); test: [3H]PDBu binding assay (polyethylene glycol precipitation); conditions: calcium and phosphatidylserine present, 2 nM [3H]PDBu, read-out: Ki (inhibitory dissociation constant, displacement of [3H]PDBu)
Experimental: [^3H]PDBu Binding Assay. The inhibitory dissociation constant (Ki) of each bryologue ligand was determined by the ability of the ligand to displace bound [20-^3H]phorbol 12,13-dibutyrate (PDBu) from mouse recombinant isozyme PKCα in the presence of calcium and phosphatidylserine, using a polyethylene glycol precipitation assay developed in our laboratory as described elsewhere. Briefly, the assay mixture (250 μL) contained 50 mM Tris-HCl (pH 7.4 at room temperature), 100 μg/mL phosphatidylserine, 0.1 mM Ca^2+, 4 mg/mL bovine immunoglobulin G and 0.003% Tx-100, 2 nM [^3H]PDBu and various concentrations of the competing ligand. […] The radioactivity was determined by scintillation counting, using Cytoscint (ICN, Costa Mesa, Calif.). Specific binding was calculated as the difference between total and nonspecific PDBu binding. The Inhibitory dissociation constants (Ki) were calculated using the method previously described by Blumberg and Lewin.
The inhibitory dissociation constant (Ki) of MERLE 28 was determined by the ability of the ligand to displace bound [20-^3H]phorbol 12,13-dibutyrate (PDBu) from mouse recombinant isozyme PKCα in the presence of calcium and phosphatidylserine, using a polyethylene glycol precipitation assay previously described by Blumberg and Lewin. […] The radioactivity was determined by scintillation counting, using Cytoscint (ICN, Costa Mesa, Calif.). […]

[2] = tested on: HIV long terminal repeat (LTR) promoter; test: cells; format: cell-based; conditions: Jurkat cells; for EC50: LTR-luciferase, incubated 24, 48 and 72 hours (time of the listed values not stated)
Experimental: (§1) The compounds were also tested in the T cell derived Jurkat cell line transfected with a luciferase reporter under control of an HIV long terminal repeat (LTR) promoter. Specifically, EC50 and CC50 values were determined in parallel using 10 concentrations of compound from 3 fold serial dilutions starting a 5 uM as the highest concentration. Cells and media were added to compounds with a final concentration of DMSO of 1% and incubated at 37° C., 5% CO2 for 24, 48 and 72 hours. EC50 was measured by induced luciferase activity detected by the use of the Steady-Glo® Luciferase reagent (PROMEGA) with an EnVision (Perkin-Elmer) plate reader. CC50 was determined by the dose dependent knock down of cellular ATP detected by the use of CellTiter-Glo® Luminescent Cell Viability reagent (PROMEGA) with an EnVision (Perkin-Elmer) plate reader.

in vitro = format: cell-based; conditions: human; Jurkat cells, knock down of cellular ATP
Experimental: as §1

[3] = tested on: human osteosarcoma (HOS) cells; test: HOS cell viability (CellTiter-Glo, cellular ATP); format: cell-based; parameters: unit not given here; conditions: knock down of cellular ATP
Experimental: as §1, with “Specifically,” for “The compounds were also tested in the T cell derived Jurkat cell line transfected with a luciferase reporter under control of an HIV long terminal repeat (LTR) promoter. Specifically,”

[4] = tested on: HIV long terminal repeat (LTR) promoter; test: HOS LTR stimulation assay (luciferase reporter); format: cell-based; conditions: HOS cells; for Max signal (% of control): LTR-luciferase signal; for Conc (uM) at Max: concentration at maximal LTR-luciferase signal; for EC50: LTR-luciferase, incubated 24, 48 and 72 hours (time of the listed values not stated), read-out: EC50
Experimental: In the assay, non T cell derived human osteosarcoma (HOS) cells are transfected with a luciferase reporter under control of an HIV long terminal repeat (LTR) promoter. Compounds that stimulate the HIV LTR promoter will produce luciferase in a dose dependent manner.
as §1, with “Specifically,” for “The compounds were also tested in the T cell derived Jurkat cell line transfected with a luciferase reporter under control of an HIV long terminal repeat (LTR) promoter. Specifically,”
The error bars represent the average and the standard error of the mean of at least three independent experiments.

Jurkat cell line = test: in vitro; format: cell-based; conditions: Jurkat cells, knock down of cellular ATP
Experimental: as §1

Row | SMILES | Ki [1] [nM] | EC50 ([2]; Human immunodeficiency virus 1) [nM] | selectivity ratio ([2]; human, ratio of the CC50 to the EC50) | CC50 (in vitro) [nM] | CCEC50 [3] | Max signal (% of control) [4] | Conc (uM) at Max [4] [µM] | EC50 ([4]; Human immunodeficiency virus 1) [nM] | CC50 (Jurkat cell line) [nM] | EC50 [2] [nM] | Selectivity (CC50:EC50) ([2]; ratio of the CC50 to the EC50) | EC50 [4] [nM]
1 | C=C1C[C@H]2C[C@H]3C[C@@H](OC(C)=O)C[C@@H](C[C@@H](O)CC(=O)O[C@@H]([C@@H](C)O)C[C@@H]4C/C(=C\C(=O)OC)[C@H](OC(=O)CCCCCCC)[C@@](O)(O4)C(C)(C)/C=C/[C@@H](C1)O2)O3 [MERLE 27] | 3 ± 0.06 | – | – | – | – | – | – | – | – | – | – | –
2 | C=C1C[C@@H]2C[C@@H]3CC(=C)C[C@H](/C=C/C(C)(C)[C@]4(O)O[C@@H](C/C(=C\C(=O)OC)[C@@H]4OC(=O)/C=C/C=C/CCC)C[C@H]([C@@H](C)O)OC(=O)C[C@H](O)C[C@H](C1)O2)O3 [MERLE 23] | – | 0.2 | 25 | 5 | 39.57 | 166 % of control | 0.07 | 2 | – | – | – | –
3 | COC(=O)/C=C1/C[C@H]2C[C@]3(O)O[C@H](C[C@@H](O)CC(=O)O[C@@H]([C@@H](C)O)C[C@@H]4C/C(=C\C(=O)OC)[C@H](OC(C)=O)[C@@](O)(O4)C(C)(C)/C=C/[C@@H](C1)O2)C[C@H](OC(C)=O)C3(C)C [Bryostatin 7] | – | – | – | – | 6.24 | 250 % of control | 0.07 | – | 4.6 | 1 | 4.6 | 6
